This assay deals with TEAD-dependent transcription (12XGTIIC TEAD response element luciferase reporter) in MSTO-211H cells. Kind of assay: TEAD-dependent transcription cell-based luciferase reporter assay in MSTO-211H+12XGTIIC cells. Particulars: Homo sapiens; MSTO-211H+12XGTIIC reporter cells, 24 hours compound incubation, luminescence normalized to cell viability signal, geometric mean; read-out: MSTO-211H GMean IC50 (uM) Cell Assay Reporter Cell Variant: TEAD. The essentials:
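Stable 12×GTIIC-luciferase clone seeded 1×10^4 cells/well overnight, then exposed to compound serial dilutions for 24 h at 37° C. ONE-Glo luminescence normalized to CellTiter-Fluor viability signal; % inhibition relative to DMSO and 20 μM K-975 controls. IC50 by nonlinear regression.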
The term IC50 denotes the midpoint of a concentration-inhibition curve. Take `NC(=O)N1CCC(C(=O)N2CCc3c(cccc3Nc3ccc(C(F)(F)F)cc3)C2)C1` (centres unmarked) [Compound O-0057, 3-(5-((4-(trifluoromethyl)phenyl)amino)-1,2,3,4-tetrahydroisoquinoline-2-carbonyl)pyrrolidine-1-carboxamide]: the IC50 lay within 0.001 to 10 µM.

On to `CS(=O)(=O)c1nc(C(=O)N2CCc3c(cccc3Nc3ccc(C(F)(F)F)cc3)C2)c[nH]1` [Compound O-0045, (2-(methylsulfonyl)-1H-imidazol-4-yl)(5-((4-(trifluoromethyl)phenyl)amino)-3,4-dihydroisoquinolin-2(1H)-yl)methanone], for which the half-maximal inhibitory concentration (IC50) lay in the range of 0.001 to 10 µM.

For `C=CC(=O)Nc1cccc(C(=O)N2CCc3c(cccc3N(C)c3ccc(C(F)(F)F)cc3)C2)n1` [Compound O-0018, N-(6-(5-(methyl(4-(trifluoromethyl)phenyl)amino)-1,2,3,4-tetrahydroisoquinoline-2-carbonyl)pyridin-2-yl)acrylamide], the IC50 lay within 0.001 to 10 µM.

Turning to `O=C(CCS(=O)(=O)C(F)(F)F)N1CCc2c(cccc2Nc2ccc(C(F)(F)F)nc2)C1` [Compound O-0020, 1-(5-((6-(trifluoromethyl)pyridin-3-yl)amino)-3,4-dihydroisoquinolin-2(1H)-yl)-3-((trifluoromethyl)sulfonyl)propan-1-one], the IC50 lay in the range of 0.001 to 10 µM.

`C=CC(=O)Nc1cc(C(=O)N2CCc3c(cccc3Nc3ccc(C(F)(F)F)cc3)C2)ccn1` [Compound O-0038, N-(4-(5-((4-(trifluoromethyl)phenyl)amino)-1,2,3,4-tetrahydroisoquinoline-2-carbonyl)pyridin-2-yl)acrylamide]: the IC50 is 0.001 to 10 µM.

Consider `Nc1cncc(C(=O)N2CCc3c(cccc3Nc3ccc(C(F)(F)F)cc3)C2)c1` [Compound O-0031, (5-aminopyridin-3-yl)(5-((4-(trifluoromethyl)phenyl)amino)-3,4-dihydroisoquinolin-2(1H)-yl)methanone], for which the 50% inhibitory concentration (IC50) is 0.001 to 10 µM.

For `O=C(NCCC(=O)N1CCc2c(cccc2Nc2ccc(C(F)(F)F)cc2F)C1)NC1CC1` [Compound O-0193, 1-cyclopropyl-3-(3-(5-((2-fluoro-4-(trifluoromethyl)phenyl)amino)-3,4-dihydroisoquinolin-2(1H)-yl)-3-oxopropyl)urea], the IC50 is 0.001 to 10 µM.

Consider `O=C(NCCC(=O)N1CCc2c(cccc2Nc2ccc(C(F)(F)F)c(F)c2)C1)NC1CC1` [Compound O-0188, 1-cyclopropyl-3-(3-(5-((3-fluoro-4-(trifluoromethyl)phenyl)amino)-3,4-dihydroisoquinolin-2(1H)-yl)-3-oxopropyl)urea], for which the 50% inhibitory concentration (IC50) lay within 0.001 to 10 µM.

As to `Nc1nc(CC(=O)N2CCc3c(cccc3Nc3ccc(C(F)(F)F)cc3)C2)cs1` [Compound O-0007, 2-(2-aminothiazol-4-yl)-1-(5-((4-(trifluoromethyl)phenyl)amino)-3,4-dihydroisoquinolin-2(1H)-yl)ethan-1-one], the IC50 was in the range of 0.001 to 10 µM.

For `O=C(c1ccnc(Cl)n1)N1CCc2c(cccc2Nc2ccc(C(F)(F)F)cc2)C1` [Compound O-0041, (2-chloropyrimidin-4-yl)(5-((4-(trifluoromethyl)phenyl)amino)-3,4-dihydroisoquinolin-2(1H)-yl)methanone], the IC50 was in the range of 0.001 to 10 µM.

On to `O=C(C1CCS(=O)(=O)CC1)N1CCc2cc(Nc3ccc(C(F)(F)F)cc3)ccc2C1` [Compound O-0208, (1,1-dioxidotetrahydro-2H-thiopyran-4-yl)(6-((4-(trifluoromethyl)phenyl)amino)-3,4-dihydroisoquinolin-2(1H)-yl)methanone], for which the IC50 fell in the range of 0.001 to 10 µM.
